These compounds were tested on A673 NR0B1-luciferase reporter, viability-normalised luminescence (assay: NR0B1 reporter signal reduction in A673 cells – cell-based, luciferase luminescence, cherry-pick, EWS/Fli inhibitor project, dose response (AID 686920)).
With `C/C(=C\c1ccccc1)C(=O)N1CCC=CC1=O` the AC35 was 10.3 µM. Compound `COC(=O)C[C@H]1CC[C@H]2[C@H](COc3ccc(NC(=O)Nc4cccc(Cl)c4)cc3C(=O)N2C)O1` has an AC35 of 44.1 µM. `CC(=O)N1CCCC(c2cc(C(=O)Nc3ccccc3)no2)C1` (configuration not stated) gave an AC35 of 2.06 µM. In the case of `O=C1NC2C(=CC(O)C(O)C2O)c2cc3c(cc21)OCO3` (configuration not stated), the AC35 is reported as 0.429 µM. In the case of `C[C@@H]1O[C@@H](O[C@H]2C[C@@H](O)[C@]3(CO)[C@H]4[C@H](O)C[C@]5(C)[C@@H](C6COC(=O)C6)CC[C@]5(O)[C@@H]4CC[C@]3(O)C2)[C@H](O)[C@H](O)[C@H]1O` (some centres not stated), the AC35 is reported as 1.24 µM. In the case of `O=C1NC(=O)N(Cc2ccco2)C(=O)/C1=C/C=C/c1ccco1`, the AC35 is reported as 6.32 µM. `O=C(CCCN1C(=O)S/C(=C\c2ccccc2)C1=O)NNC(=O)c1ccccc1O` was tested, and the AC35 was 4.38 µM. Compound `Oc1c(C(c2ccc(Cl)cc2)N2CCCC2)cc(Cl)c2cccnc12` (configuration not stated) has an AC35 of 9.79 µM. Compound `COc1ccc(OC)c(/C=C/c2ccnc3ccccc23)c1` has an AC35 of 2.4 µM. Work on `N#C[C@H]1[C@H](c2ccc(C#Cc3ccccc3F)cc2)[C@@H](CO)N1C(=O)C1CCOCC1` yielded an AC35 of 34 µM. `O=C1Nc2ccccc2C1=Nc1ccc(Br)cc1` gave an AC35 of 15.6 µM. In the case of `CCOC(=O)[C@]12Cc3ccc(C)cc3[C@H]1N(C1CCCCC1)C(=O)c1ccccc12`, the AC35 is reported as 5.49 µM. Work on `CN1C2CCC1/C(=C/c1ccccn1)C(=O)/C2=C\c1ccccn1` yielded an AC35 of 1.87 µM. In the case of `O=C(O)c1ccc2cc(-c3ccccc3)[nH]c2c1`, the AC35 is reported as 6.18 µM. `CC(C)N1C/C(=C/c2cccnc2)C(=O)/C(=C/c2cccnc2)C1` gave an AC35 of 10.8 µM. `CCC(C)Cn1c(O)cc2nn(-c3nc4ccccc4s3)c(=O)c-2c1C` (configuration not stated) was tested, and the AC35 was 1.57 µM. For `COc1ccc2oc(-c3ccccc3)cc(=O)c2c1`, the AC35 was 8.22 µM. For `C[C@@H]1CN([C@@H](C)CO)C(=O)c2cccc(NC(=O)CCCCCC(=O)Nc3ccccc3N)c2O[C@@H]1CN(C)Cc1ccc(Oc2ccccc2)cc1`, the AC35 was 6.74 µM. Work on `C[C@@H]1CN([C@@H](C)CO)C(=O)Cc2cc(NC(=O)Nc3ccc(C(F)(F)F)cc3)ccc2O[C@@H]1CN(C)Cc1ccc(C(=O)Nc2ccccc2N)cc1` yielded an AC35 of 7.91 µM. For `C[C@H](CO)N1C[C@H](C)[C@H](CN(C)Cc2ccc(C(=O)Nc3ccccc3N)cc2)Oc2ccc(NC(=O)C3CC3)cc2CC1=O`, the AC35 was 37.8 µM. `COC(=O)C[C@@H]1CC[C@@H]2[C@H](COc3ccc(NC(=O)Nc4ccc(C#N)cc4)cc3C(=O)N2C)O1` gave an AC35 of 62.4 µM. Compound `CC(=NNc1ccc2ccccc2n1)c1ccccn1` has an AC35 of 0.597 µM. With `Cc1ccc(S(=O)(=O)Nc2ccc3c(c2)C(=O)N([C@H](C)CO)C[C@H](C)[C@@H](CN(C)Cc2ccc(C(F)(F)F)cc2)OCCCC[C@H](C)O3)cc1` the AC35 was 11.5 µM. In the case of `C[C@@H]1CN([C@@H](C)CO)C(=O)c2cccc(N(C)C)c2O[C@@H]1CN(C)Cc1ccc(C(=O)Nc2ccccc2N)cc1`, the AC35 is reported as 39.8 µM. `N#C[C@@H]1[C@H](c2ccc(C#Cc3ccccc3F)cc2)[C@@H](CO)N1C(=O)c1cccnc1` gave an AC35 of 5.46 µM. For `COc1cc(OC)cc(-c2cc3nc(C)c(CCC(=O)NCc4ccccc4)c(C)n3n2)c1`, the AC35 was 3.44 µM. `Cc1nc2ncccn2c1-c1csc(Nc2ccc(O)cc2)n1` was tested, and the AC35 was 8.68 µM. `COc1ccc(Cl)cc1S(=O)(=O)Nc1ccc2c(c1)n(C)c(=O)n2C` showed an AC35 of 31.3 µM. `Nc1ccc2c(c1)OC1(CCCC1)O2` showed an AC35 of 6.63 µM. With `Cc1[nH][nH]c(=O)c1C(c1c(C)[nH][nH]c1=O)c1cn(Cc2ccc(Cl)c(Cl)c2)c2ccccc12` the AC35 was 4.99 µM. Compound `Cc1ccc(C)c(S(=O)(=O)N2CCN(c3ncnc4sccc34)CC2)c1` has an AC35 of 3.63 µM. For `CCOc1ccc(-c2noc(CCC(=O)O)n2)cc1`, the AC35 was 1.17 µM. For `O=C(O)c1ccccc1C(=O)Nc1ccc(Oc2cccc3ccccc23)cc1`, the AC35 was 2.28 µM. For `OCC1OC(n2cnc3c(NCc4ccco4)ncnc32)C(O)C1O` (configuration not stated), the AC35 was 2.81 µM. In the case of `Cc1ccc(S(=O)(=O)N(C)C[C@H]2Oc3c(cccc3N(C)C)C(=O)N([C@@H](C)CO)C[C@@H]2C)cc1`, the AC35 is reported as 1.62 µM. With `COC(=O)C[C@@H]1CC[C@@H]2[C@H](COc3ccc(NC(=O)c4cc(C)on4)cc3C(=O)N2C)O1` the AC35 was 7 µM. `C[C@@H]1CN([C@H](C)CO)C(=O)c2cc(NS(=O)(=O)c3ccc(Cl)cc3)ccc2O[C@@H]1CN(C)Cc1ccc(Cl)c(Cl)c1` showed an AC35 of 29.1 µM. `CN1C(=O)c2cc(NC(=O)c3ccc(C(F)(F)F)cc3)ccc2OC[C@@H]2O[C@@H](CC(=O)NC3Cc4ccccc4C3)CC[C@H]21` gave an AC35 of 8.33 µM. `C[C@]12CC[C@H]3[C@@H](CC[C@]4(O)C[C@@H](O)CC[C@]34C=O)[C@@]1(O)CC[C@@H]2C1=CC(=O)OC1` gave an AC35 of 0.626 µM. `CCOC(=O)Cc1csc(NC(=S)NC(=O)c2ccc(C)cc2)n1` was tested, and the AC35 was 0.265 µM. `COc1ccccc1NC(=O)N1CCCCN2[C@H](CO)[C@H](c3ccc(-c4cccc(C)c4)cc3)[C@H]2C1` gave an AC35 of 8.3 µM. `CNC[C@H](CC1CCCCC1)NC[C@H](CO)NCCc1cccc(C(F)(F)F)c1` gave an AC35 of 13.7 µM. `CC12CCC(O)CC1CCC1C2CCC2(C)C(C3=CC(=O)OC3)CCC12O` (configuration not stated) was tested, and the AC35 was 0.391 µM. In the case of `O=C(NC1CCCC1)C(c1ccccc1)n1c(CSCCOc2ccccc2)nc2ccccc21` (configuration not stated), the AC35 is reported as 2.19 µM. `C[C@H]1CN([C@@H](C)CO)C(=O)Cc2cc(NC(=O)C3CC3)ccc2O[C@H]1CN(C)S(=O)(=O)c1ccc(Cl)cc1` gave an AC35 of 16.1 µM. For `Cc1ccccc1NC(=O)C(=Cc1ccc(C(=O)O)cc1)C(=O)Nc1ccccc1C`, the AC35 was 5.63 µM. In the case of `CC(C)(C)c1ccc(Cn2c(=O)cnc3ccccc32)cc1`, the AC35 is reported as 13.2 µM. Work on `CN(c1ccc(NC(=O)CCc2c[nH]c3ccccc23)cc1)c1ccccn1` yielded an AC35 of 4.96 µM. With `COc1ccccc1/C=C1\SC(=S)N(CCC(=O)Nc2cc(C)on2)C1=O` the AC35 was 16.8 µM. `COc1ccc(C(=O)CN2C(=O)c3ccccc3S2(=O)=O)cc1` was tested, and the AC35 was 0.279 µM. `CC(C)CC(NC(=O)c1cccs1)c1nnc(SCc2ccc(Cl)c(Cl)c2)n1C` (configuration not stated) was tested, and the AC35 was 39.5 µM. Compound `CCOc1cc(N2CCC(O)CC2)ccc1Nc1ncc2c(n1)N(C)c1ccccc1C(=O)N2C` has an AC35 of 2.01 µM. In the case of `C[C@H]1CN([C@@H](C)CO)C(=O)Cc2cc(NC(=O)CCCCCC(=O)Nc3ccccc3N)ccc2O[C@H]1CN(C)Cc1ccc(C(F)(F)F)cc1`, the AC35 is reported as 6.15 µM. `CCN1CCN(/C=N/c2nc3c(s2)CCCC3)CC1` gave an AC35 of 7.97 µM. `Cc1ccc(OCCNC(=O)c2cccc(S(=O)(=O)NCc3ccccc3)c2)cc1` was tested, and the AC35 was 3.98 µM. With `O=C(c1cccc(S(=O)(=O)NCc2ccccc2)c1)N1CCN(c2ccccc2)CC1` the AC35 was 11.6 µM. Work on `Cc1cccc(/C=C(\c2nc3ccccc3[nH]2)S(=O)(=O)c2ccccc2)c1` yielded an AC35 of 5.46 µM. Work on `Cc1cc(C(=O)CN2C(=O)c3ccccc3S2(=O)=O)c(C)n1C(C)C` yielded an AC35 of 3.04 µM. For `C(=Cc1cnc2ccccc2n1)c1ccc2c(c1)OCO2`, the AC35 was 1.12 µM. `C/C(=N\NC(=O)c1n[nH]c2c1CCC2)c1cccs1` gave an AC35 of 1.78 µM. `N#CC1C=Cc2c(ccc3ccccc23)N1C(=O)c1ccccc1` (configuration not stated) gave an AC35 of 0.692 µM. In the case of `C[C@@H]1CN([C@@H](C)CO)S(=O)(=O)c2ccc(C#Cc3ccncc3)cc2O[C@H]1CN(C)S(=O)(=O)c1ccccc1`, the AC35 is reported as 15.2 µM. With `COC(=O)COc1ccc(-c2nccc(-c3ccccn3)n2)cc1` the AC35 was 1.5 µM. In the case of `COc1ccc2nc(-c3ccc(F)cc3)sc2c1`, the AC35 is reported as 8.38 µM. In the case of `N#C[C@H]1N[C@H](CO)[C@H]1c1ccc(C#Cc2ccccc2F)cc1`, the AC35 is reported as 0.137 µM. `Cc1cc(C(=O)Nc2ccc3c(c2)C(=O)N(C)[C@@H]2CC[C@H](CC(=O)N[C@H](C)c4ccccc4)O[C@H]2CO3)no1` showed an AC35 of 10.2 µM. With `CC(=O)Oc1ccc(-c2ccc(C(=O)Nc3cccc(S(=O)(=O)N4CCOCC4)c3)cc2)cc1` the AC35 was 12.9 µM. Compound `CCc1ccc(/C=C2\SC(=S)N(CCCC(=O)N3CCN(C)CC3)C2=O)cc1` has an AC35 of 21.3 µM. `COc1ccc(-c2sc3ccccc3c2-c2ccc(OCCN3CCCCC3)cc2)cc1` showed an AC35 of 7.87 µM. Work on `CN(C)c1ccc(C=c2c3ccccc3n3c2c2c([n+]3C)CCCC2)cc1` yielded an AC35 of 1.9 µM. `C[C@H]1CN([C@@H](C)CO)C(=O)c2cc(NS(=O)(=O)c3ccc(Cl)cc3)ccc2O[C@H]1CN(C)Cc1ccc(Cl)c(Cl)c1` gave an AC35 of 40.5 µM. In the case of `COc1cc(C(=O)N2CCC(N3CCN(C)CC3)CC2)ccc1Nc1ncc2c(n1)N(C)c1ccccc1C(=O)N2C`, the AC35 is reported as 4.75 µM. For `C[C@@H]1CN([C@H](C)CO)C(=O)c2cc(NC(=O)CCCCCC(=O)Nc3ccccc3N)ccc2O[C@@H]1CN(C)Cc1ccc(Cl)c(Cl)c1`, the AC35 was 5.24 µM. Work on `Cc1ccc(C(C)C)c(OCc2ccc(C(=O)N/N=C/c3ccc(O)cc3O)cc2)c1` yielded an AC35 of 1.46 µM. Work on `Cc1cc(C(=O)Nc2ccc3c(c2)C(=O)N(C)[C@@H]2CC[C@@H](CC(=O)NCc4ccc(-c5ccccc5)cc4)O[C@H]2CO3)no1` yielded an AC35 of 6.29 µM. `C[C@H](CO)N1C[C@H](C)[C@H](CN(C)Cc2ccc(C(=O)Nc3ccccc3N)cc2)Oc2c(cccc2N(C)C)C1=O` was tested, and the AC35 was 12.9 µM. `CN(Cc1cnc2nc(N)nc(N)c2n1)c1ccc(C(=O)N[C@@H](CCC(=O)O)C(=O)O)cc1` was tested, and the AC35 was less than 0.03 µM. `C[C@H]1CN([C@@H](C)CO)S(=O)(=O)c2ccc(C#CC(C)(C)O)cc2O[C@@H]1CN(C)Cc1ccc(-c2ccccc2)cc1` gave an AC35 of 1.09 µM. For `Cc1cccc(/C=N/Nc2ccc3ccccc3n2)c1`, the AC35 was 1.6 µM. `CN1c2ccc(-c3ccc(C#N)cc3)cc2[C@H]2[C@H](CCN2S(=O)(=O)c2cccc(F)c2)[C@H]1CO` gave an AC35 of 1.74 µM. Compound `CC(C)Oc1ccc(Br)cc1C(=O)N/N=C/c1c[nH]c2ccccc12` has an AC35 of 17.2 µM. `C=C(C(=O)c1ccccc1)C(C(=C)C(=O)c1ccccc1)c1ccc(OC)cc1` showed an AC35 of 4.37 µM. In the case of `NC1=CC(=O)C(=O)c2cccnc21`, the AC35 is reported as 14 µM. In the case of `COc1ccc(S(=O)(=O)N2CC[C@@H]3[C@@H](CO)Nc4ccc(-c5ccc(C#N)cc5)cc4[C@@H]32)cc1`, the AC35 is reported as 0.625 µM. For `C[C@H]1CN([C@@H](C)CO)C(=O)Cc2cc(NC(=O)CCC(F)(F)F)ccc2O[C@H]1CN(C)Cc1ccc(C(=O)Nc2ccccc2N)cc1`, the AC35 was 6.66 µM. With `COc1ccc(C2c3cc4c(cc3OC(NNC(N)=O)C2C)OCO4)cc1` (configuration not stated) the AC35 was 14 µM. `C[C@H]1CN([C@@H](C)CO)C(=O)c2cc(NC(=O)C3CCCCC3)ccc2O[C@H]1CN(C)Cc1ccc(C(=O)Nc2ccccc2N)cc1` was tested, and the AC35 was 4.8 µM. Compound `CN(CCO)c1ccc(/C=N/Nc2nncc3ccccc23)cc1` has an AC35 of 5.2 µM. `C[C@@H]1CN([C@H](C)CO)C(=O)c2cc(C#CCN(C)C)cnc2O[C@H]1CN(C)Cc1ccc(-c2ccccc2)cc1` was tested, and the AC35 was 10.9 µM. `CC(=NNc1cc(C)c2ccccc2n1)c1ccccn1` showed an AC35 of 8.23 µM. In the case of `C[C@H](CO)N1C[C@H](C)[C@@H](CN(C)Cc2ccc(Oc3ccccc3)cc2)Oc2ccc(NS(=O)(=O)c3ccc(Cl)cc3)cc2CC1=O`, the AC35 is reported as 22.8 µM. Work on `C[C@H]1CN([C@@H](C)CO)C(=O)c2cccc(NC(=O)c3ccc(-c4nccs4)cc3)c2O[C@@H]1CN(C)Cc1ccc(C(=O)Nc2ccccc2N)cc1` yielded an AC35 of 14.1 µM.
